Assay results reported in patent US12091411B2, “IRAK degraders and uses thereof” (Kymera Therapeutics, Inc., priority 2022, dated 2024).
Where two headings read alike, the source gives them in different places.

Molecular target: T1, IRAK4 (Homo sapiens, UniProt Q9NWZ3)
T1 construct: Degradation of IRAK4 in OCI-LY10 was quantitatively measured using Meso Scale Discovery technology; endogenous in cells; host or cells: OCI-LY10
T1 sequence (Q9NWZ3 1-460): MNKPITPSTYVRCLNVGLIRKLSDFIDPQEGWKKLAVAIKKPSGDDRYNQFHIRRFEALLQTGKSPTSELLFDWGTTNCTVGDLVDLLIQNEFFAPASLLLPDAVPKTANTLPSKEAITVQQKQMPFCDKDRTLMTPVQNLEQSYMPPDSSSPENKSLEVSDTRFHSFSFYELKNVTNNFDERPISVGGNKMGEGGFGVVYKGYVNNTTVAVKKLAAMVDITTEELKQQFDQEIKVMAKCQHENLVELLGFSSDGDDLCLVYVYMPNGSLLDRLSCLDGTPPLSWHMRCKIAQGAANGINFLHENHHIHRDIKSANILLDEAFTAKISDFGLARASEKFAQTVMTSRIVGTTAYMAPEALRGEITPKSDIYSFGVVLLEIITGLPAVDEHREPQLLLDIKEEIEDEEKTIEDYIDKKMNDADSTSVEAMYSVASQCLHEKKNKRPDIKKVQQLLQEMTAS
Test: IRAK4 MSD Degradation in OCI-LY10
Assay type: cell-based
Conditions: OCI-LY10 cells, MSD
How it was run: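 DC50, from a three-parameter logistic fit and reported as letter bins A (<0.01 μM), B, C, D (>0.2 μM or not tested), reflects IRAK4 loss measured by MSD electrochemiluminescence in OCI-LY10 lysates. Treatment: 8 doses, 1:3 steps, top 1 to 10 μM, 4 to 24 h, 37 °C.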

[1] = 4 hrs incubation, read-out: IRAK4 degradation in OCI-LY10 at 4 hrs: DC50
[2] = 24 hrs incubation, read-out: IRAK4 degradation in OCI-LY10 at 24 hrs: DC50

Structure (SMILES)	DC50 [1]	DC50 [2]
Cn1c(=O)n(C2CCC(=O)NC2=O)c2cccc(C[C@H]3C[C@H](N4CCN(C[C@H]5CC[C@H](n6cc(NC(=O)c7cnn8ccc(N9C[C@H]%10CC9CO%10)nc78)c(C(F)F)n6)CC5)CC4)C3)c21 (some centres unmarked) [I-576]	> 0.2 µM	< 0.01 µM
CO[C@]1(CN2CCN(C[C@H]3CC[C@H](n4cc(NC(=O)c5cnn6ccc(N7C[C@H]8CC7CO8)nc56)c(C(F)F)n4)CC3)CC2)C[C@H](c2cccc3c2n(C)c(=O)n3C2CCC(=O)NC2=O)C1 (some centres unmarked) [I-579]	> 0.2 µM	> 0.2 µM
Cn1c(=O)n(C2CCC(=O)NC2=O)c2cccc([C@H]3C[C@](O)(CN4CCN(C[C@H]5CC[C@H](n6cc(NC(=O)c7cnn8ccc(N9C[C@H]%10CC9CO%10)nc78)c(C(F)F)n6)CC5)CC4)C3)c21 (some centres unmarked) [I-580]	> 0.2 µM	< 0.01 µM
Cn1c(=O)n(C2CCC(=O)NC2=O)c2cccc(C#CCO[C@@H]3CCN(C[C@H]4CC[C@H](n5cc(NC(=O)c6cnn7ccc(N8CCS(=O)(=O)CC8)nc67)c(C(F)F)n5)CC4)C[C@@H]3F)c21 (some centres unmarked) [I-589]	> 0.2 µM	> 0.2 µM
Cn1c(=O)n(C2CCC(=O)NC2=O)c2cccc(C#CCO[C@@H]3CCN(C[C@H]4CC[C@H](n5cc(NC(=O)c6cnn7ccc(N8CCS(=O)(=O)CC8)nc67)c(C(F)F)n5)CC4)C[C@H]3F)c21 (some centres unmarked) [I-590]	> 0.2 µM	> 0.2 µM
Cn1c(=O)n(C2CCC(=O)NC2=O)c2cccc(C#CCO[C@H]3CCN(C[C@H]4CC[C@H](n5cc(NC(=O)c6cnn7ccc(N8CCS(=O)(=O)CC8)nc67)c(C(F)F)n5)CC4)C[C@@H]3F)c21 (some centres unmarked) [I-591]	> 0.2 µM	> 0.2 µM
Cn1c(=O)n(C2CCC(=O)NC2=O)c2cccc(C#CCO[C@H]3CCN(C[C@H]4CC[C@H](n5cc(NC(=O)c6cnn7ccc(N8CCS(=O)(=O)CC8)nc67)c(C(F)F)n5)CC4)C[C@H]3F)c21 (some centres unmarked) [I-592]	> 0.2 µM	> 0.2 µM
Cn1c(=O)n(C2CCC(=O)NC2=O)c2cccc(N3CC(COC4CN(C[C@H]5CC[C@H](n6cc(NC(=O)c7cnn8ccc(N9C[C@H]%10C[C@@H]9CO%10)nc78)c(C(F)F)n6)CC5)C4)C3)c21 (some centres unmarked) [I-599]	> 0.2 µM	< 0.01 µM
Cn1c(=O)n(C2CCC(=O)NC2=O)c2cccc(C#CCOC3CN(C[C@H]4CC[C@H](n5cc(NC(=O)c6cnn7ccc(N8C[C@H]9C[C@@H]8CO9)nc67)c(C(F)F)n5)CC4)C3)c21 (some centres unmarked) [I-600]	> 0.2 µM	> 0.2 µM
CN(C[C@H]1CC[C@H](n2cc(NC(=O)c3cnn4ccc(N5C[C@H]6C[C@@H]5CO6)nc34)c(C(F)F)n2)CC1)C1CN(c2cccc3c2n(C)c(=O)n3C2CCC(=O)NC2=O)C1 (some centres unmarked) [I-602]	> 0.2 µM	> 0.2 µM
C[C@H]1CN(c2ccn3ncc(C(=O)Nc4cn([C@H]5CC[C@H](CN(C)C6CN(c7cccc8c7n(C)c(=O)n8C7CCC(=O)NC7=O)C6)CC5)nc4C(F)F)c3n2)CCO1 (some centres unmarked) [I-603]	> 0.2 µM	> 0.2 µM
Cn1c(=O)n(C2CCC(=O)NC2=O)c2cccc(N3CC(F)(CN4CCN(C[C@H]5CC[C@H](n6cc(NC(=O)c7cnn8ccc(N9C[C@H]%10CC9CO%10)nc78)c(C(F)F)n6)CC5)CC4)C3)c21 (some centres unmarked) [I-604]	> 0.2 µM	> 0.2 µM
Cn1c(=O)n(C2CCC(=O)NC2=O)c2cccc(N3CC(O)(CN4CCN(C[C@H]5CC[C@H](n6cc(NC(=O)c7cnn8ccc(N9C[C@H]%10CC9CO%10)nc78)c(C(F)F)n6)CC5)CC4)C3)c21 (some centres unmarked) [I-605]	> 0.2 µM	< 0.01 µM
COC1(CN2CCN(C[C@H]3CC[C@H](n4cc(NC(=O)c5cnn6ccc(N7C[C@H]8CC7CO8)nc56)c(C(F)F)n4)CC3)CC2)CN(c2cccc3c2n(C)c(=O)n3C2CCC(=O)NC2=O)C1 (some centres unmarked) [I-606]	> 0.2 µM	< 0.01 µM
Cn1c(=O)n(C2CCC(=O)NC2=O)c2cccc(OC3CN(C[C@H]4CC[C@H](n5cc6cc(NC(=O)c7cccc(C(F)(F)F)n7)ccc6n5)CC4)C3)c21 (some centres unmarked) [I-607]	> 0.2 µM	0.01 to 0.1 µM
Cn1c(=O)n(C2CCC(=O)NC2=O)c2cccc(OC3CN(C[C@H]4CC[C@H](n5cc6cc(NC(=O)c7cccc(C(F)(F)F)n7)ncc6n5)CC4)C3)c21 (some centres unmarked) [I-608]	> 0.2 µM	> 0.2 µM
Cn1c(=O)n(C2CCC(=O)NC2=O)c2cccc(C3CN(C[C@H]4CC[C@H](n5cc6cc(NC(=O)c7cccc(C(F)(F)F)n7)ccc6n5)CC4)C3)c21 (some centres unmarked) [I-609]	> 0.2 µM	> 0.2 µM
Cn1c(=O)n(C2CCC(=O)NC2=O)c2cccc(C3CN(C[C@H]4CC[C@H](n5cc6cc(NC(=O)c7cccc(C(F)(F)F)n7)ncc6n5)CC4)C3)c21 (some centres unmarked) [I-610]	> 0.2 µM	> 0.2 µM

Second part, the molecule after the results:

DC50 [1]	DC50 [2]	Structure (SMILES)
> 0.2 µM	> 0.2 µM	Cn1c(=O)n(C2CCC(=O)NC2=O)c2cccc(O[C@H]3C[C@H](N4CCN(C[C@H]5CC[C@H](n6cc(NC(=O)c7cnn8ccc(N9C[C@H]%10CC9CO%10)nc78)c(C(F)F)n6)CC5)CC4)C3)c21 (some centres unmarked) [I-577]
> 0.2 µM	< 0.01 µM	Cn1c(=O)n(C2CCC(=O)NC2=O)c2cccc(N3CC(O[C@@H]4CCN(C[C@H]5CC[C@H](n6cc(NC(=O)c7cnn8ccc(N9C[C@H]%10C[C@@H]9CO%10)nc78)c(C(F)F)n6)CC5)C[C@@H]4F)C3)c21 (some centres unmarked) [I-581]
> 0.2 µM	> 0.2 µM	Cn1c(=O)n(C2CCC(=O)NC2=O)c2cccc(N3CC(O[C@@H]4CCN(C[C@H]5CC[C@H](n6cc(NC(=O)c7cnn8ccc(N9C[C@H]%10C[C@@H]9CO%10)nc78)c(C(F)F)n6)CC5)C[C@H]4F)C3)c21 (some centres unmarked) [I-582]
> 0.2 µM	> 0.2 µM	Cn1c(=O)n(C2CCC(=O)NC2=O)c2cccc(N3CC(O[C@H]4CCN(C[C@H]5CC[C@H](n6cc(NC(=O)c7cnn8ccc(N9C[C@H]%10C[C@@H]9CO%10)nc78)c(C(F)F)n6)CC5)C[C@@H]4F)C3)c21 (some centres unmarked) [I-583]
> 0.2 µM	> 0.2 µM	Cn1c(=O)n(C2CCC(=O)NC2=O)c2cccc(N3CC(O[C@H]4CCN(C[C@H]5CC[C@H](n6cc(NC(=O)c7cnn8ccc(N9C[C@H]%10C[C@@H]9CO%10)nc78)c(C(F)F)n6)CC5)C[C@H]4F)C3)c21 (some centres unmarked) [I-584]
> 0.2 µM	< 0.01 µM	Cn1c(=O)n(C2CCC(=O)NC2=O)c2cccc(N3CC(CO[C@@H]4CCN(C[C@H]5CC[C@H](n6cc(NC(=O)c7cnn8ccc(N9C[C@H]%10CC9CO%10)nc78)c(C(F)F)n6)CC5)C[C@@H]4F)C3)c21 (some centres unmarked) [I-585]
> 0.2 µM	< 0.01 µM	Cn1c(=O)n(C2CCC(=O)NC2=O)c2cccc(N3CC(CO[C@@H]4CCN(C[C@H]5CC[C@H](n6cc(NC(=O)c7cnn8ccc(N9C[C@H]%10CC9CO%10)nc78)c(C(F)F)n6)CC5)C[C@H]4F)C3)c21 (some centres unmarked) [I-586]
> 0.2 µM	< 0.01 µM	Cn1c(=O)n(C2CCC(=O)NC2=O)c2cccc(N3CC(CO[C@H]4CCN(C[C@H]5CC[C@H](n6cc(NC(=O)c7cnn8ccc(N9C[C@H]%10CC9CO%10)nc78)c(C(F)F)n6)CC5)C[C@@H]4F)C3)c21 (some centres unmarked) [I-587]
> 0.2 µM	< 0.01 µM	Cn1c(=O)n(C2CCC(=O)NC2=O)c2cccc(N3CC(CO[C@H]4CCN(C[C@H]5CC[C@H](n6cc(NC(=O)c7cnn8ccc(N9C[C@H]%10CC9CO%10)nc78)c(C(F)F)n6)CC5)C[C@H]4F)C3)c21 (some centres unmarked) [I-588]
> 0.2 µM	> 0.2 µM	Cn1c(=O)n(C2CCC(=O)NC2=O)c2cccc([C@H]3C[C@H](O[C@@H]4CCN(C[C@H]5CC[C@H](n6cc(NC(=O)c7cnn8ccc(N9C[C@H]%10C[C@@H]9CO%10)nc78)c(C(F)F)n6)CC5)C[C@@H]4F)C3)c21 (some centres unmarked) [I-593]
> 0.2 µM	> 0.2 µM	Cn1c(=O)n(C2CCC(=O)NC2=O)c2cccc([C@H]3C[C@H](O[C@@H]4CCN(C[C@H]5CC[C@H](n6cc(NC(=O)c7cnn8ccc(N9C[C@H]%10C[C@@H]9CO%10)nc78)c(C(F)F)n6)CC5)C[C@H]4F)C3)c21 (some centres unmarked) [I-594]
> 0.2 µM	> 0.2 µM	Cn1c(=O)n(C2CCC(=O)NC2=O)c2cccc([C@H]3C[C@H](O[C@H]4CCN(C[C@H]5CC[C@H](n6cc(NC(=O)c7cnn8ccc(N9C[C@H]%10C[C@@H]9CO%10)nc78)c(C(F)F)n6)CC5)C[C@@H]4F)C3)c21 (some centres unmarked) [I-595]
> 0.2 µM	> 0.2 µM	Cn1c(=O)n(C2CCC(=O)NC2=O)c2cccc([C@H]3C[C@H](O[C@H]4CCN(C[C@H]5CC[C@H](n6cc(NC(=O)c7cnn8ccc(N9C[C@H]%10C[C@@H]9CO%10)nc78)c(C(F)F)n6)CC5)C[C@H]4F)C3)c21 (some centres unmarked) [I-596]
> 0.2 µM	< 0.01 µM	Cn1c(=O)n(C2CCC(=O)NC2=O)c2cccc([C@H]3C[C@@H](COC4CN(C[C@H]5CC[C@H](n6cc(NC(=O)c7cnn8ccc(N9C[C@H]%10C[C@@H]9CO%10)nc78)c(C(F)F)n6)CC5)C4)C3)c21 (some centres unmarked) [I-597]
> 0.2 µM	< 0.01 µM	Cn1c(=O)n(C2CCC(=O)NC2=O)c2cccc([C@H]3C[C@H](COC4CN(C[C@H]5CC[C@H](n6cc(NC(=O)c7cnn8ccc(N9C[C@H]%10C[C@@H]9CO%10)nc78)c(C(F)F)n6)CC5)C4)C3)c21 (some centres unmarked) [I-598]
> 0.2 µM	> 0.2 µM	Cn1c(=O)n(C2CCC(=O)NC2=O)c2cccc(N3CC(OC4CCN(C[C@H]5CC[C@H](n6cc(NC(=O)c7cnn8ccc(N9C[C@H]%10C[C@@H]9CO%10)nc78)c(C(F)F)n6)CC5)CC4)C3)c21 (some centres unmarked) [I-601]
